{
  "source": "patent US20250269018A1",
  "about": "“COMBINED CANCER THERAPY WITH AN EPITHELIAL CELL ADHESION MOLECULE (EPCAM) INHIBITOR AND A HEPATOCYTE GROWTH FACTOR RECEPTOR (HGFR) INHIBITOR” (ACADEMIA SINICA, priority 2021, published 2025)",
  "key": {"[1]": {"test_system": "HCT116 or HT29", "assay": "Metastatic and orthotopic animal models of colon cancer, overall statements", "method": "Colon cancer HCT116 or HT29 (5×10^6 cells/mouse) in PBS were injected into 4-6-week-old female NOD/SCID mice through the tail vein. Mice were then randomly assigned to different treatment groups by body weight. After 3 days, antibodies were administered through tail vein injection twice a week for four consecutive weeks. Crizotinib was administered daily by oral gavage for 5 days per week (treatment for four weeks). For the therapeutic study, tumor-bearing mice were treated with isotype control IgG1 (15 mg/kg), crizotinib (20 mg/kg), EpAb2-6 (15 mg/kg), or crizotinib (20 mg/kg) combined with EpAb2-6 (15 mg/kg). Mouse survival rate were measured.\nOrthotopic tumor models were created as previously reported (Chen et al., 2020). Briefly, NSCID mice were used for orthotopic implantation of HCT116 cells previously infected with Lenti-luc virus (lentivirus containing luciferase gene). The mice were anesthetized by i.p. injection ofAvertin, 2,2,2-Tribromo-ethanol (Sigma-Aldrich) at a dose of 250 mg/kg. Tumor development was monitored by bioluminescence imaging. For the therapeutic study, tumor-bearing mice were treated with isotype control IgG1 (15 mg/kg), crizotinib (20 mg/kg), EpAb2-6 (15 mg/kg), or crizotinib (20 mg/kg) combined with EpAb2-6 (15 mg/kg). Tumor progression was monitored by quantification of bioluminescence. Mouse survival was also monitored."}, "[2]": {"test_system": "HCT116 cells", "assay": "Apoptosis assay, annexin V-FITC/PI double labeling, HCT116", "type": "cell-based, human", "experimental": "(§1) FIGS. 7A to 7G. EpAb2-6 binds EpEX and induces apoptosis by F(ab′)2 and inhibits regulated intramembrane proteolysis (RIP) activation and HGFR signaling. (FIG. 7A) Binding affinity of IgG EpAb2-6 (mouse) and F(ab′)2 to EpEX-His (1 μg/ml) coated overnight was checked using ELISA (OD450). (FIG. 7B) HCT116 cells were treated with 100 μg/ml control IgG, Fc, or F(ab′)2 of EpAb2-6 for 24 h. The apoptotic and necrotic cells were quantified by fluorescein annexin V-FITC/PI double labeling. (FIG. 7C) HCT116 and HT29 cells were treated with 10 μg/ml control IgG, MT201, humanized EpAb2-6 (hEpAb2-6) or mouse hybridoma EbAb2-6 (mEpAb2-6) for 24 h. The apoptotic and necrotic cells were quantified by fluorescein annexin V-FITC/PI double labeling. (FIG. 7D) HCT116 cells were treated with 10 μg/ml control IgG, MT201, hEpAb2-6 or mEpAb2-6 for 16 h, followed by treatment with EpEX-His (50 nM) for 15 min. Levels of phosphorylated HGFR, AKT, and ERK, and (FIG. 7E) RIP proteins ADAM17 and presenilin 2 were examined by Western blotting. Anti-EpCAM antibody and crizotinib coordinately induces apoptosis in colon cancer cells. (FIG. 7F) HCT116 and HT29 cells were treated with 10 μg/ml NMIgG or EpAb2-6 and 4 μM HGFR inhibitor crizotinib for 24 h. The apoptotic and necrotic cells were quantified by fluorescein annexin V-FITC/PI double labeling. (FIG. 7G) HCT116 and HT29 cells were treated with 10 μg/ml NMIgG or EpAb2-6 and 10 μM HGFR inhibitor crizotinib. Cell invasion was assessed by a Transwell assay with matrigel after 24 h.\n(§2) Cells were seeded and treated with 10 μg/ml mAb or inhibitor for 6 h; an unrelated mouse myeloma immunoglobulin used at appropriate dilution served as the IgG2a (Invitrogen #02-6200) isotype control. Apoptotic cells were detected using Annexin V-FITC and PI, and were analyzed using a flow cytometer (BD Immmunocytometry Systems). Early apoptosis was measured with the Annexin V-FITC Apoptosis Detection kit II (BD Pharmingen). Late apoptotic nuclei were detected with propidium iodide (PI) staining."}, "[3]": {"test_system": "HT29 cells", "assay": "Transwell invasion assay with matrigel, HT29", "type": "cell-based, human", "details": "10 μg/ml EpAb2-6 and 10 μM crizotinib, 24 h, vs control IgG, FIG. 7G", "method": "Cell migration and invasion were assayed with 8-μm pore size Transwell migration chambers (Millicell) without or with 10% matrigel. Cells (1×10^5) were added to the upper chamber in 500 μl serum-free DMEM. Then, 700 μl DMEM containing 10% FBS was added to the lower chamber as a chemoattractant. Migration and invasion were allowed to proceed for 16 h at 37° C. in a standard cell culture incubator. Then, cells were removed from the upper surface of the membranes with cotton swabs, and the cells that had migrated to the lower surface were stained with 0.05% (w/v) crystal violet in 4% paraformaldehyde (in 1×PBS) for 15 min and washed with water. Membranes were dried for 15-20 min before at least four random fields on the membrane examined at high power were counted for each experimental condition."}, "[4]": {"test_system": "HT29 cells", "assay": "Apoptosis assay, annexin V-FITC/PI double labeling, HT29", "type": "cell-based, human", "details": "10 μg/ml EpAb2-6 and 4 μM crizotinib 24 h, FIG. 7F", "experimental": "as §1, §2"}, "[5]": {"test_system": "HCT116 cells", "assay": "Transwell migration/invasion and wound healing assay, HCT116", "type": "cell-based, human", "details": "HCT116; 10 μg/ml EpAb2-6 and 10 μM crizotinib; 24 h; vs control IgG; FIG. 7G", "experimental": "FIGS. 3A to 3H. EpEX induces the activation of ERK and FAK-AKT signaling pathway. Wild type (WT) or EpCAM knockout (KO) HCT116 cells after EpEX-His treatment. (FIG. 3A) The levels of phosphorylated HGFR, AKT, FAK, GSK3β, ERK, ADAM17, and presenilin 2 were assayed by Western blotting. (FIG. 3B) Colony formation was examined by crystal violet staining. (FIG. 3C) HCT116 cells were treated with TAPI (ADAM17 inhibitor) or DAPT (γ-secretase inhibitor) for 24 hours, and the phosphorylation of HGFR, AKT, and ERK was analyzed by Western blotting, and EpEX protein level in culture medium was examined by immunoprecipitation and Western blotting. (FIG. 3D) HCT116 and HT29 cells were starved for 16 h, then treated with EpEX-His (50 nM) and HGF (0.5 nM) for 15 min. The levels of phosphorylated HGFR, AKT, and ERK were examined by Western blotting. (FIG. 3E) HCT116 cells were starved for 16 h, then treated with 50 nM EpEX-His for 15 min. HGFR inhibitor SU11274 (SU, 10 μM), AKT inhibitor LY294002 (LY, 25 μM), ERK inhibitor U0126 (U0, 20 μM), or FAK inhibitor PF-562271 (PF, 10 μM) were applied 1 h before EpEX treatment. Phosphorylation of AKT, ERK, and FAK was examined by Western blotting. (FIG. 3F) HCT116 cells were starved for 16 h, then treated with 50 nM EpEX, and SU (10 μM), LY (25 μM), U0 (20 μM) or PF (10 μM). Colony formation was examined by crystal violet staining after treatment for 7 days. The relative colony densities are shown. Migration ability was examined by the (FIG. 3G) wound healing assay at the indicated times. (FIG. 3H) The numbers of migration cell was assessed by a Transwell after treatment for 24 h.\nFIGS. 4A to 4L. EpEX induces EMT and invasion by stabilizing β-catenin and Snail through decreasing GSK3β activity. (FIG. 4A) The protein expression of EMT markers and regulators was detected by Western blotting in Wild-type (WT) or EpCAM knockout (KO) HCT116 cells after EpEX treatment. (FIG. 4B) Cell invasion was examined by Transwell chamber assay with matrigel. (FIG. 4C) WT or KO HCT116 and HT29 cells were starved for 16 h, then treated with 0.5 nM of HGF with 2% FBS for 24 h. EMT-related protein expression (E-cadherin, vimentin, and Snail) was examined by Western blotting. (FIG. 4D) WT or KO HCT116 and HT29 cells were treated with HGF (0.5 nM) for 24 h. Invasion by HCT116 and HT29 cells was examined by Transwell chamber assay with matrigel. (FIG. 4E) HCT116 and HT29 cells were starved for 16 h, then treated with 0.5 nM of HGF with 2% FBS for 24 h. EMT-related protein expression (E-cadherin, Vimentin, and Snail) was examined by Western blotting. (FIG. 4F) HCT116 and HT29 cells were starved for 16 h, then treated with 0.5 nM of HGF with 2% FBS for 24 h. Cell invasion was assessed by a Transwell assay with matrigel. (FIG. 4G) HCT116 cells after shLuc and shHGFR treatment were treated with 50 nM of EpEX-His. HCT116 cells after shLuc and shHGFR treatment were treated with 50 nM of EpEX-His with 2% FBS for 24 h. EMT-related protein expression (E-cadherin, Vimentin, and Snail) was examined by Western blotting. (FIG. 4H) Cell invasion was examined by Transwell chamber assay with matrigel. (FIG. 4I) Starved HCT116 cells were treated SU (10 μM) for 1 h, followed by treatment with EpEX-His (50 nM) for 24 h. Phosphorylated GSK3β, active-β-catenin, and Snail were detected by Western blotting. (FIG. 4J) HCT116 cells were starved for 16 h, then treated with 50 nM EpEX-His for 24 min. AKT inhibitor LY294002 (25 μM), ERK inhibitor U0126 (20 μM), or PF-562271 (10 μM) were applied 1 h before EpEX treatment. Protein expression of phosphorylated GSK3β and Snail was examined by Western blotting. (FIG. 4K) HCT116 cells were starved for 16 h, then treated with 50 nM EpEX, and SU (10 μM), LY (25 μM), UO (20 μM) or PF (10 μM). Cell invasion was examined by Transwell chamber assay with matrigel. (FIG. 4L) Protein expression was analyzed by Western blotting in EpEX-His (50 nM) treated HCT116 cells after treatment with or without 2 μM GSK3β inhibitor (BIO) for 24 h. […]"}},
  "data": [
    {"smiles": "C[C@@H](Oc1cc(-c2cnn(C3CCNCC3)c2)cnc1N)c1c(Cl)ccc(F)c1Cl", "note": "[crizotinib, 3-[(1R)-1-(2,6-dichloro-3-fluorophenyl)ethoxy]-5-(1-piperidin-4-ylpyrazol-4-yl)pyridin-2-amine]", "values": [
      {"measurement": "survival", "setting": "[1]", "result": "poor survival"},
      {"measurement": "tumor progression", "setting": "[1]", "result": "developed significant tumors"},
      {"measurement": "effect of crizotinib on the apoptotic effects of EpAb2-6", "setting": "[2]; 10 μg/ml EpAb2-6 and 4 μM crizotinib 24 h, FIG. 7F", "result": "enhance the apoptotic effects of EpAb2-6"},
      {"measurement": "sensitization of HCT116 cells to antibody-induced apoptosis after crizotinib treatment", "setting": "[2]; discussion statement", "result": "sensitized to humanized-EpAb2-6- and EpAb2-6-induced apoptosis"},
      {"measurement": "effect of crizotinib on the inhibitory effect of EpAb2-6 on invasion", "setting": "[3]", "result": "enhanced the inhibitory effect of EpAb2-6 on invasion"},
      {"measurement": "effect of crizotinib on the apoptotic effects of EpAb2-6", "setting": "[4]", "result": "enhance the apoptotic effects of EpAb2-6"},
      {"measurement": "effect of crizotinib on the inhibitory effect of EpAb2-6 on invasion", "setting": "[5]", "result": "enhanced the inhibitory effect of EpAb2-6 on invasion"}
    ]}
  ]
}
